Patent publication US9346827B2, “5-amino-oxazepine and 5-amino-thiazepane compounds as beta secretase antagonists and methods of use” (Amgen Inc., priority 2011, dated 2016)
pIC50: −log10 of the molar value. Blank lines part the entries; values can stand above or below the compound they belong to.

Key:
BACE 1 = BACE 1 (Homo sapiens (Human), UniProt P56817); assay: In vitro enzymatic BACE FRET assay; format: biochemical; details: average IC50; enzyme 0.2 nM, FRET substrate 50 nM, pH 4.2
Protocol: In Vitro Enzymatic BACE FRET (Fluorescence Resonance Energy Transfer) Assay
The assay buffer used in this screen is 0.05 M acetate, pH 4.2, 10% DMSO final, 100 uM genapol (which is a nonionic detergent, below its Critical Micelle Concentration). […] This assay is effectively started by the addition of FRET substrate (50 nM) and the combination is incubated for one hour. The FRET assay is terminated with by addition of Tris buffer, which raises the pH to neutrality, and the fluorescence is determined. The FRET substrate is a peptide with commercially available fluorophore and quencher, on opposite sides of the BACE cleavage site. Proteolytic cleavage of the FRET substrate releases quenching of fluorescence (excitation […] and […]).

[1] = test system: Aβ40 in conditioned medium of cells expressing amyloid precursor protein; assay: In vitro BACE cell-based assay (HEK cell assay, Aβ40 sandwich ELISA); details: Homo sapiens, HEK293; average IC50; inhibition of Aβ40 after 24 h incubation
Protocol: In Vitro BACE Cell-Based Assay
The cell-based assay measures inhibition or reduction of Aβ40 in conditioned medium of test compound treated cells expressing amyloid precursor protein.
Cells stably expressing Amyloid Precursor Protein (APP) were plated at a density of 40K cells/well in 96 well plates (Costar). The cells were cultivated for 24 hours at 37° C. and 5% CO2 in DMEM supplemented with 10% FBS. The test compounds were then added to cells in 10-point dose response concentrations with the starting concentration being either 100 μM or 10 μM. The compounds were diluted from stock solutions in DMSO and the final DMSO concentration of the test compounds on cells was 0.1%. After 24 h of incubation with the test compounds the supernatant conditioned media was collected and the Aβ40 levels were determined using a sandwich ELISA. The IC50 of the compound was calculated from the percent of control or percent inhibition of Aβ40 as a function of the concentration of the test compound.
The sandwich ELISA to detect Aβ40 was performed in 96 well microtiter plates, which were pre-treated with goat anti-rabbit IgG (Pierce). The capture and detecting antibody pair that were used to detect Aβ40 from cell supernatants were affinity purified pAb40 (Biosource) and biotinylated 6E10 (Signet Labs Inc.), respectively. The optimal concentration for the pAb40 antibody was 3 μg/ml in Superblock/TBS (Pierce) that was supplemented with 0.05% Tween 20 (Sigma).
Cellular supernatants were incubated with the capture antibody for 3 h at 4° C., followed by 3 wash steps in TBS-tween (0.05%). The detecting antibody incubation was for 2 h at 4° C., again followed by the wash steps as described previously. The final readout of the ELISA is Time-Resolved Fluorescence (counts per minute) using Delfia reagents Streptavidin-Europium and Enhancement solutions (Perkin Elmer) and the Victor 2 multilabel counter (Perkin Elmer).

Chain of BACE 1 (P56817 46-501, species assumed): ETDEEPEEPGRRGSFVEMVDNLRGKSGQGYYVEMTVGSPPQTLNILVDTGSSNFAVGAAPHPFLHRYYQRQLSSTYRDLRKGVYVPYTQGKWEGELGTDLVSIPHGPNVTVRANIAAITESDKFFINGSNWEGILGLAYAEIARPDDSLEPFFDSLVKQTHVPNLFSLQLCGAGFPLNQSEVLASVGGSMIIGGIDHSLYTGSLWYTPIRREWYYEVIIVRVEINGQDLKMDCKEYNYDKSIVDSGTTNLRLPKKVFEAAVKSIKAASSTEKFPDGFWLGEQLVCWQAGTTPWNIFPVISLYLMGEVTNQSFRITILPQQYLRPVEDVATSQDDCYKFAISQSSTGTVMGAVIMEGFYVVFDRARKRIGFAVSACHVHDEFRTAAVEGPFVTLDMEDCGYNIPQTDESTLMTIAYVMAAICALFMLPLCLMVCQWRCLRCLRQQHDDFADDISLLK

Compound: NC1=N[C@]2(CCOC1)c1cc(-c3cccnc3F)ccc1Oc1cnc(-c3ccnc(F)c3)cc12 [Example 17, (5R)-7-(2-fluoro-3-pyridinyl)-3-(2-fluoro-4-pyridinyl)-6′,7′-dihydro-2′H-spiro[chromeno[2,3-c]pyridine-5,5′-[1,4]oxazepin]-3′-amine]
pIC50 (BACE 1): 6.43
pIC50 [1]: 6.16

Compound: NC1=N[C@@]2(COCC1)c1cc(Br)ccc1Oc1cnc(Cl)cc12 [Example 3B, (5S)-7-bromo-3-chloro-6′,7′-dihydrospiro-[chromeno[2,3-c]-pyridine-5,3′-[1,4]oxazepin]-5′-amine]
pIC50 (BACE 1): 5.42
pIC50 [1]: 6.05

Compound: CC(C)(C)COc1cc(F)c2c(c1)C1(COCCC(N)=N1)c1cc(-c3cccnc3F)ccc1O2 (racemic) [Example 4, (3R/S)-2′-(2,2-dimethylpropoxy)-4′-fluoro-7′-(2-fluoro-3-pyridinyl)-6,7-dihydrospiro[1,4-oxazepine-3,9′-xanthen]-5-amine]
pIC50 (BACE 1): 9.00
pIC50 [1]: 7.92

Compound: NC1=NC2(COCC1)c1cc(-c3cccnc3F)ccc1Oc1cnc(-c3ccnc(F)c3)cc12 (racemic) [Example 2, (5R/S)-7-(2-fluoro-3-pyridinyl)-3-(2-fluoro-4-pyridinyl)-6′,7′-dihydrospiro-[chromeno-[2,3-c]pyridine-5,3′-[1,4]oxazepin]-5′-amine]
pIC50 (BACE 1): 9.00
pIC50 [1]: 8.52

Compound: NC1=N[C@]2(COCC1)c1cc(Br)ccc1Oc1cnc(Cl)cc12 [Example 3A, (5R)-7-bromo-3-chloro-6′,7′-dihydrospiro-[chromeno[2,3-c]pyridine-5,3′-[1,4]oxazepin]-5′-amine]
pIC50 (BACE 1): 5.03
pIC50 [1]: 5.20

Compound: NC1=N[C@@]2(CCOC1)c1cc(-c3cccnc3F)ccc1Oc1cnc(N3CCC(F)(F)C3)cc12 [Example 19, (S)-3-(3,3-difluoropyrrolidin-1-yl)-7-(2-fluoropyridin-3-yl)-6′,7′-dihydro-2′H-spiro[chromeno[2,3-c]pyridine-5,5′-[1,4]oxazepin]-3′-amine]
pIC50 (BACE 1): 8.52
pIC50 [1]: 8.40

Compound: CC(C)(C)COc1cc(F)c2c(c1)[C@@]1(COCCC(N)=N1)c1cc(-c3cccnc3F)ccc1O2 [Example 16, (3R)-2′-(2,2-dimethylpropoxy)-4′-fluoro-7′-(2-fluoro-3-pyridinyl)-6,7-dihydrospiro[1,4-oxazepine-3,9′-xanthen]-5-amine]
pIC50 (BACE 1): 6.55
pIC50 [1]: 6.52

The next lines start with the values.

pIC50 (BACE 1): 9.30
pIC50 [1]: 9.00
Compound: NC1=N[C@@]2(COCC1)c1cc(-c3cccnc3F)ccc1Oc1cnc(-c3ccnc(F)c3)cc12 [Example 14, (5S)-7-(2-fluoro-3-pyridinyl)-3-(2-fluoro-4-pyridinyl)-6′,7′-dihydrospiro[chromeno-[2,3-c]-pyridine-5,3′-[1,4]oxazepin]-5′-amine]

pIC50 (BACE 1): 6.86
pIC50 [1]: 7.11
Compound: NC1=N[C@]2(COCC1)c1cc(-c3cccnc3F)ccc1Oc1cnc(-c3ccnc(F)c3)cc12 [Example 13, (5R)-7-(2-fluoro-3-pyridinyl)-3-(2-fluoro-4-pyridinyl)-6′,7′-dihydrospiro[chromeno-[2,3-c]-pyridine-5,3′-[1,4]oxazepin]-5′-amine]

pIC50 (BACE 1): 9.30
pIC50 [1]: 8.15
Compound: CC(C)(C)COc1cc(F)c2c(c1)[C@]1(COCCC(N)=N1)c1cc(-c3cccnc3F)ccc1O2 [Example 15, (3S)-2′-(2,2-dimethylpropoxy)-4′-fluoro-7′-(2-fluoro-3-pyridinyl)-6,7-dihydrospiro[1,4-oxazepine-3,9′-xanthen]-5-amine]
